Source: PubChem BioAssay AID248 (DTP/NCI, 2004)
Values joined by “and” are separate entries in the source; they are usually repeats but may differ in a detail not shown here. Identical values can stand only once. Toxic doses and inconclusive results are not listed. Rule as the data show it: active = T/C of 150% or more; inactive = T/C below 125%.

Tested on: L1210 leukemia ip in BDF1 mice, survival T/C
Test: NCI In Vivo Anticancer Drug Screen. Data for tumor model L1210 Leukemia (intraperitoneal) in B6D2F1 (BDF1) mice
Conditions: endpoint: mean survival time, higher = longer survival
In short: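 Mice bearing the transplanted tumor received compound or vehicle. Survival of the treated group was divided by that of the vehicle-treated control group to give the ratio.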

[1] = dose: 100.0 mg/kg/injection, schedule: Q01DX001 (ip), vehicle: saline
[2] = dose: 200.0 mg/kg/injection, schedule: Q01DX001 (ip), vehicle: saline
[3] = dose: 400.0 mg/kg/injection, schedule: Q01DX001 (ip), vehicle: saline
[4] = dose: 100.0 mg/kg/injection, schedule: Q01DX009 (ip), vehicle: saline
[5] = dose: 200.0 mg/kg/injection, schedule: Q01DX009 (ip), vehicle: saline
[6] = dose: 100.0 mg/kg/injection, schedule: Q04DX003 (ip), vehicle: saline
[7] = dose: 200.0 mg/kg/injection, schedule: Q04DX003 (ip), vehicle: saline

Measured: T/C

O=c1[nH]c2cc3ccccc3cc2c2ccccc12
inactive: [1] 109 % of control | [2] 95 % of control | [3] 100 % of control

O=c1cc[nH]c2n[nH]nc12
inactive: dose: 100.0 mg/kg/injection, schedule: Q01DX001 (ip), vehicle: Klucel (hydroxypropylcellulose) (HPC) 94 % of control | dose: 200.0 mg/kg/injection, schedule: Q01DX001 (ip), vehicle: Klucel (hydroxypropylcellulose) (HPC) 94 % of control | dose: 400.0 mg/kg/injection, schedule: Q01DX001 (ip), vehicle: Klucel (hydroxypropylcellulose) (HPC) 96 % of control

SCC1SCCCS1
inactive: dose: 12.5 mg/kg/injection, schedule: Q04DX002 (ip), vehicle: saline with Tween-80 97 % of control | dose: 25.0 mg/kg/injection, schedule: Q04DX002 (ip), vehicle: saline with Tween-80 113 % of control | dose: 50.0 mg/kg/injection, schedule: Q04DX002 (ip), vehicle: saline with Tween-80 97 % of control

CC(=O)c1ccc(OCc2ccccc2)cc1O
inactive: [4] 111 % of control | [5] 100 % of control | dose: 400.0 mg/kg/injection, schedule: Q01DX009 (ip), vehicle: saline 100 % of control

CC(C)CCOC(=O)N(C)c1ccccc1
inactive: dose: 75.0 mg/kg/injection, schedule: Q04DX002 (ip), vehicle: Klucel (hydroxypropylcellulose) (HPC) 101 % of control | dose: 150.0 mg/kg/injection, schedule: Q04DX002 (ip), vehicle: Klucel (hydroxypropylcellulose) (HPC) 105 % of control | dose: 300.0 mg/kg/injection, schedule: Q04DX002 (ip), vehicle: Klucel (hydroxypropylcellulose) (HPC) 105 % of control

O=[N+]([O-])c1ccc(P(=O)(O)O)cc1
inactive: dose: 50.0 mg/kg/injection, schedule: Q01DX001 (ip), vehicle: saline 103 % of control | [1] 101 % of control | [2] 107 % of control | [3] 115 % of control

COc1cccc(CC(C)(C)CCO)c1
inactive: dose: 50.0 mg/kg/injection, schedule: Q01DX009 (ip), vehicle: saline with Tween-80 102 % of control | dose: 100.0 mg/kg/injection, schedule: Q01DX009 (ip), vehicle: saline with Tween-80 100 % of control | dose: 200.0 mg/kg/injection, schedule: Q01DX009 (ip), vehicle: saline with Tween-80 96 % of control

O=C1/C(=C\c2ccccc2)N2CCC1CC2
inactive: dose: 100.0 mg/kg/injection, schedule: Q04DX002 (ip), vehicle: saline with Tween-80 87 % of control | [6] 103 % of control | dose: 200.0 mg/kg/injection, schedule: Q04DX002 (ip), vehicle: saline with Tween-80 91 % of control | [7] 108 % of control | dose: 400.0 mg/kg/injection, schedule: Q04DX002 (ip), vehicle: saline with Tween-80 87 % of control | dose: 400.0 mg/kg/injection, schedule: Q04DX003 (ip), vehicle: saline 103 % of control

O=C(N=C1C=CC(=NC(=O)c2ccccc2)C=C1)c1ccccc1
inactive: dose: 75.0 mg/kg/injection, schedule: Q04DX003 (ip), vehicle: Klucel (hydroxypropylcellulose) (HPC) 87 % of control | dose: 150.0 mg/kg/injection, schedule: Q04DX003 (ip), vehicle: Klucel (hydroxypropylcellulose) (HPC) 92 % of control | dose: 300.0 mg/kg/injection, schedule: Q04DX003 (ip), vehicle: Klucel (hydroxypropylcellulose) (HPC) 87 % of control

CC([CH2][Hg][Cl])c1ccccc1 (centres undefined)
inactive: dose: 3.13 mg/kg/injection, schedule: Q01DX009 (ip), vehicle: saline with Tween-80 95 % of control | dose: 6.25 mg/kg/injection, schedule: Q01DX009 (ip), vehicle: saline with Tween-80 92 % of control | dose: 6.25 mg/kg/injection, schedule: Q04DX003 (ip), vehicle: Klucel (hydroxypropylcellulose) (HPC) 101 % of control | dose: 12.5 mg/kg/injection, schedule: Q01DX009 (ip), vehicle: saline with Tween-80 90 % of control | dose: 12.5 mg/kg/injection, schedule: Q04DX003 (ip), vehicle: Klucel (hydroxypropylcellulose) (HPC) 119 % of control

C[C@]12CC[C@H]3[C@@H](CCC4=CC(=O)CC[C@@]43C)[C@@H]1CC[C@@H]2OC(=O)Cc1ccc(N(CCCl)CCCl)cc1
inactive: dose: 100.0 mg/kg/injection, schedule: Q01DX001 (sc), vehicle: steriod suspending solution 94 % of control | dose: 200.0 mg/kg/injection, schedule: Q01DX001 (sc), vehicle: steriod suspending solution 96 % of control | dose: 400.0 mg/kg/injection, schedule: Q01DX001 (sc), vehicle: steriod suspending solution 91 % of control

CC(C)(C)OC(=O)NCC(=O)O
inactive: dose: 50.0 mg/kg/injection, schedule: Q01DX009 (ip), vehicle: saline 93 % of control | dose: 75.0 mg/kg/injection, schedule: Q01DX001 (ip), vehicle: acetone 93 % of control | [4] 96 % of control | [6] 97 % of control | dose: 150.0 mg/kg/injection, schedule: Q01DX001 (ip), vehicle: acetone 99 % of control | [5] 93 % of control | [7] 106 % of control | dose: 300.0 mg/kg/injection, schedule: Q01DX001 (ip), vehicle: acetone 103 % of control

NCC1CC2CCC1CC2 (centres undefined)
inactive: dose: 12.5 mg/kg/injection, schedule: Q01DX009 (ip), vehicle: alcohol 106 % of control | dose: 25.0 mg/kg/injection, schedule: Q01DX009 (ip), vehicle: alcohol 101 % of control | dose: 50.0 mg/kg/injection, schedule: Q01DX009 (ip), vehicle: alcohol 106 % of control

CC1=NN(c2ccc(S(=O)(=O)O)cc2)C(=O)C1
inactive: dose: 100.0 mg/kg/injection, schedule: Q04DX003 (ip), vehicle: Klucel (hydroxypropylcellulose) (HPC) 89 % of control | dose: 200.0 mg/kg/injection, schedule: Q04DX003 (ip), vehicle: Klucel (hydroxypropylcellulose) (HPC) 98 % of control | dose: 400.0 mg/kg/injection, schedule: Q04DX003 (ip), vehicle: Klucel (hydroxypropylcellulose) (HPC) 91 % of control

CCN(CC)c1ccc(Sc2ccc([N+](=O)[O-])cc2[N+](=O)[O-])cc1
inactive: dose: 100.0 mg/kg/injection, schedule: Q01DX001 (ip), vehicle: carboxymethylcellulose (CMC) 88 % of control | dose: 200.0 mg/kg/injection, schedule: Q01DX001 (ip), vehicle: carboxymethylcellulose (CMC) 92 % of control | dose: 400.0 mg/kg/injection, schedule: Q01DX001 (ip), vehicle: carboxymethylcellulose (CMC) 92 % of control

CC1(C)C2CCC1(C)C(CO)C2 (centres undefined)
inactive: dose: 100.0 mg/kg/injection, schedule: Q04DX003 (ip), vehicle: other 100 % of control | dose: 200.0 mg/kg/injection, schedule: Q04DX003 (ip), vehicle: other 102 % of control

O=C(C#Cc1ccccc1)[O][Sn]([c]1ccccc1)([c]1ccccc1)[c]1ccccc1
inactive: dose: 1.56 mg/kg/injection, schedule: Q01DX009 (ip), vehicle: saline 102 % of control | dose: 3.12 mg/kg/injection, schedule: Q01DX009 (ip), vehicle: saline 94 % of control | dose: 6.25 mg/kg/injection, schedule: Q01DX009 (ip), vehicle: saline 96 % of control and 108 % of control

C=CCc1ccc2c(C)cc[n+](C)c2c1O
inactive: [1] 91 % of control | [2] 93 % of control

CC(=O)OCC(C)(C)c1ccccc1
inactive: dose: 100.0 mg/kg/injection, schedule: Q04DX002 (ip), vehicle: saline 105 % of control | dose: 200.0 mg/kg/injection, schedule: Q04DX002 (ip), vehicle: saline 97 % of control | dose: 400.0 mg/kg/injection, schedule: Q04DX002 (ip), vehicle: saline 105 % of control

[O-]/[N+](=C\c1ccccc1)c1ccc(Cl)cc1
inactive: dose: 75.0 mg/kg/injection, schedule: Q01DX001 (ip), vehicle: saline 96 % of control | dose: 150.0 mg/kg/injection, schedule: Q01DX001 (ip), vehicle: saline 95 % of control | dose: 300.0 mg/kg/injection, schedule: Q01DX001 (ip), vehicle: saline 91 % of control
